Test results from the NIST ThermoML archive (doi:10.1021/je500153g).

Experiment: xn = mol fraction of the nth substance listed
Details: 101 kPa, Liquid; for viscosity: Concentric cylinders viscometry; for mass density: Vibrating tube method

O=S1(=O)CCCC1 [sulfolane] + CC(C)O
Details | mass density, 303.15 K [kg/m3] | mass density, 313.15 K [kg/m3] | mass density, 323.15 K [kg/m3] | mass density, 333.15 K [kg/m3] | mass density, 343.15 K [kg/m3] | viscosity, 303.15 K [mPa·s] | viscosity, 313.15 K [mPa·s] | viscosity, 323.15 K [mPa·s] | viscosity, 333.15 K [mPa·s] | viscosity, 343.15 K [mPa·s]
x1 = 0.075 | 823.6 | 814.6 | 805.3 | 795.5 | 785.2 | 1.62 | 1.27 | 1.01 | 0.81 | 0.66
x1 = 0.164 | 875.9 | 866.9 | 857.5 | 847.9 | 837.9 | 1.69 | 1.34 | 1.08 | 0.89 | 0.74
x1 = 0.25 | 924 | 914.8 | 905.4 | 896 | 886 | 1.85 | 1.48 | 1.2 | 1 | 0.84
x1 = 0.353 | 978.7 | 969.6 | 960.4 | 950.7 | 941.1 | 2.14 | 1.71 | 1.41 | 1.18 | 0.99
x1 = 0.437 | 1021.3 | 1012.1 | 1002.9 | 993.8 | 984.3 | 2.43 | 1.96 | 1.62 | 1.36 | 1.14
x1 = 0.536 | 1069.3 | 1060.2 | 1050.9 | 1041.6 | 1032.1 | 2.91 | 2.35 | 1.95 | 1.64 | 1.4
x1 = 0.656 | 1124.3 | 1115.3 | 1106.2 | 1097 | 1087.7 | 3.75 | 3.03 | 2.5 | 2.11 | 1.8
x1 = 0.768 | 1172.1 | 1163.1 | 1154.1 | 1145.1 | 1135.9 | 4.97 | 3.99 | 3.27 | 2.73 | 2.32
x1 = 0.88 | 1219.3 | 1210.4 | 1201.6 | 1192.6 | 1183.7 | 6.92 | 5.48 | 4.45 | 3.68 | 3.1
x1 = 1 | 1262.9 | 1254.1 | 1245.2 | 1236.6 | 1228.1 | 10.4 | 8.07 | 6.45 | 5.22 | 4.32
